In patent US10828301B2, “2,4-pyrimidinediamine compounds and their uses” (Rigel Pharmaceuticals, Inc, priority 2002, dated 2020):

Assays:
[1] = test system: cultured human mast cells (CHMC); assay: CHMC low cell density IgE activation: tryptase and LTC4 assays; assay type: cell-based; conditions: Homo sapiens, Mast cell, Low Density CHMC, anti-IgE activation, tryptase readout; read-out: CHMC anti-IgE Tryptase
In short: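 Cultured human mast cells at low density (1000-1500 per well) rested 1 h at 37° C, then stimulated with anti-IgE for 30 min at 37° C. Supernatant tryptase measured with fluorogenic substrate (30 min, room temperature); LTC4 quantified by ELISA on diluted supernatant.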

[2] = test system: cultured human mast cells (CHMC); assay: CHMC low cell density ionomycin activation: tryptase assay; assay type: cell-based; conditions: Homo sapiens, Mast cell, Low Density CHMC, ionomycin activation, tryptase readout; read-out: CHMC Ionomycin Tryptase

Row | IC50 [1] | IC50 [2] | Compound
1 | 0.434 µM | > 10 µM | COC(=O)c1cc2cc(Nc3ncc(F)c(Nc4cccc(N)c4)n3)ccc2o1 [Compound R950162, N4-(3-Aminophenyl)-5-fluoro-N2-(2-methoxycarbonylbenzofurane-5-yl)-2,4-pyrimidinediamine]
2 | 1.89 µM | > 10 µM | CC(C)Nc1cccc(Nc2ncc(F)c(Nc3cccc(NC(C)C)c3)n2)c1 [Compound R950166, N2,N4-Bis[3-(N-isopropyl)aminophenyl]-5-fluoro-2,4-pyrimidinediamine]
3 | > 10 µM | > 10 µM | Fc1cnc(Nc2ccc(OCc3ccccc3)c(C(F)(F)F)c2)nc1Nc1ccc(OCc2ccccc2)c(C(F)(F)F)c1 [Compound R950090, N2,N4-Bis(4-benzyloxy-3-trifluoromethylphenyl)-5-fluoro-2,4-pyrimidinediamine]
4 | 0.525 µM | 5.53 µM | COC(=O)c1cc2cc(Nc3ncc(F)c(Nc4cccc(C(C)(C)C)c4)n3)ccc2o1 [Compound R940281, N4-(3-tert-Butylphenyl)-5-fluoro-N2-(2-methoxycarbonylbenzofur-5-yl)-2,4-pyrimidinediamine]
5 | 2.83 µM | > 10 µM | Nc1cc(Nc2ncc(F)c(Nc3cc(N)cc(C(F)(F)F)c3)n2)cc(C(F)(F)F)c1 [Compound R950140, N2,N4-Bis(3-amino-5-trifluoromethylphenyl)-5-fluoro-2,4-pyrimidinediamine]
6 | 6.94 µM | > 10 µM | Fc1cnc(Nc2ccc(N3CCN(Cc4ccccc4)CC3)cc2)nc1Nc1ccc(N2CCN(Cc3ccccc3)CC2)cc1 [Compound R945152, N2,N4-Bis[4-(N-benzylpiperazino)phenyl]-5-fluoro-2,4-pyrimidinediamine]
7 | > 10 µM | > 10 µM | O=C(O)c1ccc(Nc2ncc(F)c(Nc3ccc(C(=O)O)cc3)n2)cc1 [Compound R945037, N2,N4-Bis(4-carboxyphenyl)-5-fluoro-2,4-pyrimidinediamine]
8 | 1.13 µM | > 10 µM | COc1ccc(Nc2nc(Nc3cccc(C(C)(C)C)c3)ncc2F)cc1OC [Compound R940260, N2-(3-tert-Butylphenyl)-N4-(3,4-dimethoxyphenyl)-5-fluoro-2,4-pyrimidinediamine]
9 | > 10 µM | > 10 µM | COC(=O)c1cc(Nc2ncc(F)c(Nc3ccc(O)c(C(=O)OC)c3)n2)ccc1O [Compound R945043, N2,N4-Bis(4-hydroxy-3-methoxycarbonylphenyl)-5-fluoro-2,4-pyrimidinediamine]
10 | > 10 µM | > 10 µM | CNC(=O)c1cc(Nc2nc(NC)ncc2F)ccc1OC [Compound R940304, 5-Fluoro-N4-(3-methylaminocarbonyl-4-methoxyphenyl)-N2-methyl-2,4-pyrimidinediamine]
11 | 0.665 µM | > 10 µM | Cc1ccc(Nc2ncc(F)c(Nc3ccc(C)c(N)c3)n2)cc1N [Compound R950129, N2,N4-Bis(3-amino-4-methylphenyl)-5-fluoro-2,4-pyrimidinediamine]
12 | 1.03 µM | > 10 µM | Nc1cccc(Nc2ncc(F)c(Nc3cccc(O)c3)n2)c1 [Compound R950227, N2-(3-Aminophenyl)-5-fluoro-N4-(3-hydroxyphenyl)-2,4-pyrimidinediamine]
13 | > 10 µM | > 10 µM | O=C(O)c1cccc(Nc2ncc(F)c(Nc3cccc(C(=O)O)c3)n2)c1 [Compound R945036, N2,N4-Bis(3-carboxyphenyl)-5-fluoro-2,4-pyrimidinediamine]
14 | 4.08 µM | > 10 µM | Oc1cccc(Nc2nc(NCCc3c[nH]c4ccccc34)ncc2F)c1 [Compound R945117, 5-Fluoro-N4-(3-hydroxyphenyl)-N2-[2-(indol-3-yl)ethyl]-2,4-pyrimidinediamine]
15 | 0.862 µM | > 10 µM | CC(C)(C)C(=O)Nc1cccc(Nc2ncc(F)c(Nc3cccc(O)c3)n2)c1 [Compound R940275, N2-(3-tert-Butylcarbonylaminophenyl)-N4-(3-hydroxyphenyl)-5-fluoro-2,4-pyrimidinediamine]

The next lines start with the compound.

Row | Compound | IC50 [1] | IC50 [2]
16 | CNC(=O)C1Cc2cc(Nc3ncc(F)c(Nc4ccc(Cl)c(Cl)c4)n3)ccc2O1 (racemic) [Compound R927037, (±)-N4-(3,4-Dichlorophenyl)-N2-[2,3-dihydro-2-(N-methylamino)carbonylbenzofuran-5-yl]-5-fluoro-2,4-pyrimidinediamine] | 0.233 µM | > 10 µM
17 | CCOC(=O)c1cccc(Nc2ncc(F)c(Nc3ccc4c(c3)OCCO4)n2)c1 [Compound R925745, N2-(3-Ethoxycarbonylphenyl)-N4-(3,4-ethylenedioxyphenyl)-5-fluoro-2,4-pyrimidinediamine] | 1.77 µM | > 10 µM
18 | CCOC(=O)c1cc2cc(Nc3ncc(F)c(Nc4ccc5c(c4)OCCO5)n3)ccc2[nH]1 [Compound R926476, N2-(2-Ethoxycarbonylindol-5-yl)-N4-(3,4-ethylenedioxyphenyl)-5-fluoro-2,4-pyrimidinediamine] | 0.6 µM | 7.7 µM
19 | COC(=O)C1Cc2cc(Nc3ncc(F)c(Nc4ccc(OC)c(Cl)c4)n3)ccc2O1 (stereo not shown) [Compound R926951, N4-(3-Chloro-4-methoxyphenyl)-5-fluoro-N2-[2,3-dihydro-2-(methoxycarbonyl)benzofuran-5-yl]-2,4-pyrimidinediamine] | 0.183 µM | > 10 µM
20 | CC(C)(CO)NC(=O)c1cc2cc(Nc3ncc(F)c(Nc4cccc(O)c4)n3)ccc2o1 [Compound R926715, 5-Fluoro-N2-[2-(2-hydroxy-1,1-dimethylethylamino)carbonylbenzofuran-5-yl]-N4-(3-hydroxyphenyl)-2,4-pyrimidinediamine] | 0.588 µM | > 10 µM
21 | O=[N+]([O-])c1cnc(Nc2ccc3c(c2)OCCO3)nc1Nc1ccc2c(c1)OCCO2 [Compound R940095, N2,N4-Bis-(3,4-ethylenedioxyphenyl)-5-nitro-2,4-pyrimidinediamine] | > 10 µM | > 10 µM
22 | Fc1cnc(NCCCN2CCN(Cc3c(F)cccc3Cl)CC2)nc1Nc1ccc2c(c1)OCCO2 [Compound R926717, N2-[3-[4-(2-Chloro-6-fluorobenzyl)piperazino]propyl]-N4-(3,4-ethylenedioxyphenyl)-5-fluoro-2,4-pyrimidinediamine] | 7.87 µM | > 10 µM
23 | Oc1cccc(Nc2ncc(-c3ccc4c(c3)OCO4)c(Nc3cccc(O)c3)n2)c1 [Compound R925788, N2,N4-Bis(3-hydroxyphenyl)-5-(3,4-methylenedioxyphenyl)-2,4-pyrimidinediamine] | 2.4 µM | > 10 µM
24 | COC(=O)c1cc2cc(Nc3ncc(F)c(Nc4ccc5c(c4)OCCO5)n3)ccc2o1 [Compound R926690, N4-(3,4-Ethylenedioxyphenyl)-5-fluoro-N2-[2-(methoxycarbonyl)benzofuran-5-yl]-2,4-pyrimidinediamine] | 0.146 µM | > 10 µM
25 | Nc1nc(N(c2ccc(CO)cc2)c2ccc3c(c2)OCCO3)ncc1F [Compound R925760, N2-(3,4-Ethylenedioxyphenyl)-5-fluoro-N2-[4-(hydroxymethyl)phenyl]-2,4-pyrimidinediamine] | 4.85 µM | > 10 µM
26 | COc1ccc(C)c(Nc2ncc(F)c(Nc3ccc4c(c3)OCCO4)n2)c1 [Compound R926896, N4-(3,4-Ethylenedioxyphenyl)-5-fluoro-N2-(5-methoxy-2-methylphenyl)-2,4-pyrimidinediamine] | 1.62 µM | > 10 µM
27 | CCOC(=O)c1cc2cccc(Nc3cc(Nc4ccc5c(c4)OCCO5)c(F)cn3)c2[nH]1 [Compound R926808, N2-(2-Ethoxycarbonylindol-7-yl)-N4-(3,4-ethylenedioxyphenyl)-5-fluoro-2,4-pyridinediamine] | 0.368 µM | > 10 µM
28 | CCOC(=O)c1cnc(Nc2cccc(O)c2)nc1NOCc1ccccc1 [Compound R925824, N4-Benzyloxy-5-ethoxycarbonyl-N2-(3-hydroxyphenyl)-2,4-pyrimidinediamine] | > 10 µM | > 10 µM
29 | CCOC(=O)c1cc2cccc(Nc3ncc(F)c(Nc4cc(OC)cc(OC)c4)n3)c2[nH]1 [Compound R926803, N4-(3,5-Dimethoxyphenyl)-N2-(2-ethoxycarbonylindol-7-yl)-5-fluoro-2,4-pyrimidinediamine] | 1.54 µM | > 10 µM
30 | c1ccc(-c2ccccc2Nc2ccnc(Nc3ccccc3-c3ccccc3)n2)cc1 [Compound R925804, N2,N4-Bis(2-phenylphenyl)-2,4-pyrimidinediamine] | > 10 µM | > 10 µM
31 | CCCCOc1ccc(Nc2cc(Nc3ccc4c(c3)OCCO4)ncc2F)cc1 [Compound R920671, N4-(4-n-Butyloxyphenyl)-N2-(3,4-ethylenedioxyphenyl)-5-fluoro-2,4-pyridinediamine] | > 10 µM | > 10 µM
32 | CC(C)Oc1ccc(Nc2ncc(F)c(Nc3ccc(C(C)(C)CO)cc3)n2)cc1 [Compound R935168, 5-Fluoro-N4-[4-(2-hydroxy-1,1-dimethylethyl)phenyl]-N2-(4-isopropoxyphenyl)-2,4-pyrimidinediamine] | 0.488 µM | 9.48 µM
33 | Fc1cnc(Nc2cccc(-c3cnco3)c2)nc1Nc1ccc2c(c1)OCCO2 [Compound R926813, N4-(3,4-Ethylenedioxyphenyl)-5-fluoro-N2-[3-(1,3-oxazol-5-yl)phenyl]-2,4-pyrimidinediamine] | 0.152 µM | > 10 µM
34 | Oc1cccc(Nc2nc(Nc3ccc4c(c3)CCO4)ncc2F)c1 [Compound R909250, N2-(2,3-Dihydrobenzofuran-5-yl)-5-fluoro-N4-(3-hydroxyphenyl)-2,4-pyrimidinediamine] | 8.03 µM | > 10 µM
35 | Fc1cnc(NC(c2ccccc2)c2ccccc2)nc1NC(c1ccccc1)c1ccccc1 [Compound R935005, N2,N4-Bis(diphenylmethyl)-5-fluoro-2,4-pyrimidinediamine] | > 10 µM | > 10 µM
